The values that follow come from EP3072511A1, “The medical use of 3-aryl substituted 1-indanones” (Centrum Badan Molekularnych I Makromolekularnych Polskiej …, priority 2013, dated 2016).

Experiment [1] deals with cell line HeLa (cervix carcinoma, human). Put plainly: MTT cytotoxicity test, HeLa cells. To be noted: 48 h, read-out: HeLa IC50 after 48h. In general terms: Tetrazolium assays rely on reduction of a dye to a coloured formazan, in cell work by metabolically active cells.
Experiment [2] concerns bovine diarrhea virus. To be noted: bovine diarrhea virus as counterpart of hepatitis virus C; cited from earlier work.

In general, IC50 refers to the concentration that inhibits the measured activity by half. For the compound `COP(=O)(OC)C1C(=O)c2cc3c(cc2C1c1ccccc1)OCO3` (stereo not drawn) [Compound 1a, 2-phosphoryl-3-phenyl substituted 1-indanone], the IC50 in experiment [1] turned out to be 90 µM. Take `COc1cc(OC)c2c(c1)C(=O)CC2c1ccc(Br)cc1` (stereo not drawn) [Compound 3a, 3-(para-bromophenyl) substituted 1-indanone]: the IC50 in experiment [1] came to 60 µM. Regarding `NC(=O)c1ncn([C@@H]2O[C@H](CO)[C@@H](O)[C@H]2O)n1` [ribavirin], in experiment [2], the “selectivity index (SI)” value was 11.64.
